From the supplement of paper PMC10307832

Key:
Experiment in all cases: relative viability (nuclei count vs DMSO), 5 days (fraction); higher = more cells survive
Avagacestat + Vorinostat = compound: NC(=O)[C@@H](CCC(F)(F)F)N(Cc1ccc(-c2ncon2)cc1F)S(=O)(=O)c1ccc(Cl)cc1 [Avagacestat] + O=C(CCCCCCC(=O)Nc1ccccc1)NO [Vorinostat] (partner 1 µM)
Procedure, shortened: (§1)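 Five library-drug doses in √10 steps were combined with a fixed anchor-drug dose, or a single drug was given alone, by pin tool to lung cancer cell lines in 1536-well plates the day after seeding. Nuclei were stained and counted after 5 days. Relative viability is the nuclei count in treated wells over that in vehicle wells, taken as the median of duplicate plates.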

Avagacestat + Dasatinib = compound: NC(=O)[C@@H](CCC(F)(F)F)N(Cc1ccc(-c2ncon2)cc1F)S(=O)(=O)c1ccc(Cl)cc1 [Avagacestat] + Cc1nc(Nc2ncc(C(=O)Nc3c(C)cccc3Cl)s2)cc(N2CCN(CCO)CC2)n1 [Dasatinib] (partner 0.075 µM)
Procedure, shortened: as §1

Avagacestat + Pictilisib = compound: NC(=O)[C@@H](CCC(F)(F)F)N(Cc1ccc(-c2ncon2)cc1F)S(=O)(=O)c1ccc(Cl)cc1 [Avagacestat] + CS(=O)(=O)N1CCN(Cc2cc3nc(-c4cccc5[nH]ncc45)nc(N4CCOCC4)c3s2)CC1 [Pictilisib] (partner 1 µM)
Procedure, shortened: as §1

Avagacestat + Crizotinib = compound: NC(=O)[C@@H](CCC(F)(F)F)N(Cc1ccc(-c2ncon2)cc1F)S(=O)(=O)c1ccc(Cl)cc1 [Avagacestat] + C[C@@H](Oc1cc(-c2cnn(C3CCNCC3)c2)cnc1N)c1c(Cl)ccc(F)c1Cl [Crizotinib] (partner 1 µM)
Procedure, shortened: as §1

Cell Line | relative viability (Avagacestat + Vorinostat; first compound 0.08 µM) | relative viability (Avagacestat + Vorinostat; first compound 0.253 µM) | relative viability (Avagacestat + Vorinostat; first compound 0.8 µM) | relative viability (Avagacestat + Vorinostat; first compound 2.53 µM) | relative viability (Avagacestat + Vorinostat; first compound 8 µM) | relative viability (Avagacestat + Dasatinib; first compound 0.08 µM) | relative viability (Avagacestat + Dasatinib; first compound 0.253 µM) | relative viability (Avagacestat + Dasatinib; first compound 0.8 µM) | relative viability (Avagacestat + Dasatinib; first compound 2.53 µM) | relative viability (Avagacestat + Dasatinib; first compound 8 µM) | relative viability (Avagacestat + Pictilisib; first compound 0.08 µM) | relative viability (Avagacestat + Pictilisib; first compound 0.253 µM) | relative viability (Avagacestat + Pictilisib; first compound 0.8 µM) | relative viability (Avagacestat + Pictilisib; first compound 2.53 µM) | relative viability (Avagacestat + Pictilisib; first compound 8 µM) | relative viability (Avagacestat + Crizotinib; first compound 0.08 µM) | relative viability (Avagacestat + Crizotinib; first compound 0.253 µM) | relative viability (Avagacestat + Crizotinib; first compound 0.8 µM) | relative viability (Avagacestat + Crizotinib; first compound 2.53 µM) | relative viability (Avagacestat + Crizotinib; first compound 8 µM)
NCI-H647 | 0.743 | 0.64 | 0.579 | 0.597 | 0.567 | 0.195 | 0.188 | 0.232 | 0.118 | 0.147 | 0.487 | 0.504 | 0.459 | 0.41 | 0.372 | 1.31 | 1.41 | 1.19 | 1.03 | 1.07
NCI-H650 | 0.439 | 0.537 | 0.56 | 0.455 | 0.435 | 0.499 | 0.398 | 0.481 | 0.456 | 0.451 | 0.768 | 0.989 | 1.03 | 1.07 | 0.82 | 0.625 | 0.762 | 0.692 | 0.744 | 0.823
NCI-H661 | 0.845 | 0.98 | 0.827 | 0.784 | 0.785 | 1.05 | 0.962 | 1.07 | 0.891 | 0.852 | 0.435 | 0.38 | 0.487 |  | 0.471 | 1.12 | 1.06 | 1.05 | 1.3 | 0.968
NCI-H727 | 1.27 | 1.19 | 1.21 | 1.18 | 1.19 | 0.35 | 0.355 | 0.5 | 0.369 | 0.41 | 0.537 | 0.356 | 0.512 | 0.434 | 0.603 | 0.986 | 0.956 | 1.08 | 0.946 | 0.775
NCI-H838 | 0.737 | 0.769 | 0.788 | 0.672 | 0.705 | 0.293 | 0.285 | 0.328 | 0.309 | 0.253 | 0.504 | 0.405 | 0.568 | 0.411 | 0.319 | 0.932 | 1.09 | 0.906 | 0.858 | 0.764
NCI-H1355 | 0.702 | 0.637 | 0.628 | 0.527 | 0.542 | 0.688 | 0.754 | 0.687 | 0.557 | 0.62 | 0.442 | 0.423 | 0.421 | 0.385 | 0.418 | 1.19 | 1.14 | 0.997 | 0.872 | 0.866
NCI-H1437 | 1.03 | 1.12 | 1.11 | 0.893 | 0.728 | 0.283 | 0.278 | 0.346 | 0.291 | 0.211 | 0.388 | 0.399 | 0.417 | 0.399 | 0.366 | 1.14 | 1.1 | 1.12 | 1.05 | 0.824
NCI-H1650 | 0.593 | 0.692 | 0.51 | 0.599 | 0.67 | 0.37 | 0.35 | 0.272 | 0.304 | 0.346 | 0.693 | 0.577 | 0.552 | 0.542 | 0.476 | 1.07 | 0.967 | 1.37 | 0.916 | 1.06
